Experiments:
Type in all cases: functional
[1] = tested on: TK-10; experiment: Growth inhibition of human TK10 cells assessed as cell growth at 10^-7 M by sulforhodamine B assay; conditions: read-out: Activity
[2] = tested on: IGROV-1; experiment: Growth inhibition of human IGROV1 cells assessed as cell growth at 10^-6 M by sulforhodamine B assay; conditions: read-out: Activity
[3] = tested on: MDA-MB-231; experiment: Growth inhibition of human MDA-MB-231 cells by sulforhodamine B assay
[4] = tested on: K562; experiment: Growth inhibition of human K562 cells assessed as cell growth at 10^-8 M by sulforhodamine B assay; conditions: read-out: Activity
[5] = tested on: NCI-H522; experiment: Growth inhibition of human NCI-H522 cells assessed as cell growth at 10^-7 M by sulforhodamine B assay; conditions: read-out: Activity
[6] = tested on: MDA-MB-468; experiment: Growth inhibition of human MDA-MB-468 cells assessed as cell growth at 10^-4 M by sulforhodamine B assay; conditions: read-out: Activity
[7] = tested on: RPMI-8226; experiment: Growth inhibition of human RPMI8226 cells assessed as cell growth at 10^-4 M by sulforhodamine B assay; conditions: read-out: Activity
[8] = tested on: NCI-H226; experiment: Growth inhibition of human NCI-H226 cells assessed as cell growth at 10^-8 M by sulforhodamine B assay; conditions: read-out: Activity
[9] = tested on: NCI-H460; experiment: Growth inhibition of human NCI-H460 cells by sulforhodamine B assay
[10] = tested on: MDA-MB-468; experiment: Growth inhibition of human MDA-MB-468 cells by sulforhodamine B assay
[11] = tested on: HL-60(TB); experiment: Growth inhibition of human HL-60(TB) cells assessed as cell growth at 10^-4 M by sulforhodamine B assay; conditions: read-out: Activity
[12] = tested on: RXF 393; experiment: Growth inhibition of human RXF393 cells by sulforhodamine B assay
[13] = tested on: HCT-116; experiment: Growth inhibition of human HCT116 cells assessed as cell growth at 10^-4 M by sulforhodamine B assay; conditions: read-out: Activity
[14] = tested on: MDA-MB-231; experiment: Growth inhibition of human MDA-MB-231 cells assessed as cell growth at 10^-6 M by sulforhodamine B assay; conditions: read-out: Activity
[15] = tested on: NCI-H23; experiment: Growth inhibition of human NCI-H23 cells assessed as cell growth at 10^-4 M by sulforhodamine B assay; conditions: read-out: Activity
[16] = tested on: CCRF-CEM; experiment: Growth inhibition of human CCRF-CEM cells assessed as cell growth at 10^-6 M by sulforhodamine B assay; conditions: read-out: Activity
[17] = tested on: OVCAR-4; experiment: Growth inhibition of human OVCAR4 cells assessed as cell growth at 10^-4 M by sulforhodamine B assay; conditions: read-out: Activity
[18] = tested on: SN12C; experiment: Growth inhibition of human SN12C cells assessed as cell growth at 10^-7 M by sulforhodamine B assay; conditions: read-out: Activity
[19] = tested on: SK-MEL-2; experiment: Growth inhibition of human SK-MEL-2 cells assessed as cell growth at 10^-8 M by sulforhodamine B assay; conditions: read-out: Activity
[20] = tested on: MDA-MB-435; experiment: Growth inhibition of human MDA-MB-435 cells assessed as cell growth at 10^-8 M by sulforhodamine B assay; conditions: read-out: Activity
[21] = tested on: TK-10; experiment: Growth inhibition of human TK10 cells assessed as cell growth at 10^-6 M by sulforhodamine B assay; conditions: read-out: Activity
[22] = tested on: HOP-92; experiment: Growth inhibition of human HOP92 cells assessed as cell growth at 10^-6 M by sulforhodamine B assay; conditions: read-out: Activity
[23] = tested on: OVCAR-3; experiment: Growth inhibition of human OVCAR3 cells assessed as cell growth at 10^-8 M by sulforhodamine B assay; conditions: read-out: Activity
[24] = tested on: HCT-116; experiment: Growth inhibition of human HCT116 cells assessed as cell growth at 10^-6 M by sulforhodamine B assay; conditions: read-out: Activity
[25] = tested on: M14; experiment: Growth inhibition of human M14 cells by sulforhodamine B assay
[26] = tested on: SN12C; experiment: Growth inhibition of human SN12C cells assessed as cell growth at 10^-8 M by sulforhodamine B assay; conditions: read-out: Activity
[27] = tested on: K562; experiment: Growth inhibition of human K562 cells assessed as cell growth at 10^-6 M by sulforhodamine B assay; conditions: read-out: Activity
[28] = tested on: CCRF-CEM; experiment: Growth inhibition of human CCRF-CEM cells assessed as cell growth at 10^-7 M by sulforhodamine B assay; conditions: read-out: Activity
[29] = tested on: IGROV-1; experiment: Growth inhibition of human IGROV1 cells assessed as cell growth at 10^-8 M by sulforhodamine B assay; conditions: read-out: Activity
[30] = tested on: 786-0; experiment: Growth inhibition of human 786-0 cells assessed as cell growth at 10^-8 M by sulforhodamine B assay; conditions: read-out: Activity
[31] = Growth inhibition of human Hs 578T cells assessed as cell growth at 10^-7 M by sulforhodamine B assay; conditions: read-out: Activity
[32] = tested on: COLO 205; experiment: Growth inhibition of human COLO205 cells assessed as cell growth at 10^-8 M by sulforhodamine B assay; conditions: read-out: Activity
[33] = Growth inhibition of human NCI-ADR-RES cells assessed as cell growth at 10^-7 M by sulforhodamine B assay; conditions: read-out: Activity
[34] = tested on: SN12C; experiment: Growth inhibition of human SN12C cells assessed as cell growth at 10^-6 M by sulforhodamine B assay; conditions: read-out: Activity
[35] = tested on: UACC-62; experiment: Growth inhibition of human UACC62 cells assessed as cell growth at 10^-7 M by sulforhodamine B assay; conditions: read-out: Activity
[36] = Growth inhibition of human NCI-ADR-RES cells assessed as cell growth at 10^-4 M by sulforhodamine B assay; conditions: read-out: Activity
[37] = tested on: Malme-3M; experiment: Growth inhibition of human MALME-3M cells assessed as cell growth at 10^-7 M by sulforhodamine B assay; conditions: read-out: Activity
[38] = tested on: 786-0; experiment: Growth inhibition of human 786-0 cells by sulforhodamine B assay
[39] = tested on: SK-MEL-28; experiment: Growth inhibition of human SK-MEL-28 cells by sulforhodamine B assay
[40] = tested on: CAKI-1; experiment: Growth inhibition of human CAKI-1 cells assessed as cell growth at 10^-7 M by sulforhodamine B assay; conditions: read-out: Activity
[41] = tested on: MDA-MB-231; experiment: Growth inhibition of human MDA-MB-231 cells assessed as cell growth at 10^-7 M by sulforhodamine B assay; conditions: read-out: Activity
[42] = read-out: LC50 (the source's name)
[43] = read-out: pLC50 (the source's name) (converted)

**Q.** Which growth at 0.1 µM [1] does the source give for C/C=C(/C)C(=O)O[C@@H]1CC(C)(C)C[C@H]2C3=CC[C@@H]4[C@@]5(C)CC[C@H](O)C(C)(C)[C@@H]5CC[C@@]4(C)[C@]3(C)CC[C@@]12C(=O)O [Reduced Lantadene A] here?
**A.** 108%

**Q.** What about the growth at 1 µM [2] of the same compound?
**A.** 111%

**Q.** And the GI50 ([3]; read-out: GI50)?
**A.** 1.65 µM

**Q.** And the CC50 [3, 42]?
**A.** 5.98 µM

**Q.** What about the TGI ([3]; read-out: TGI) of the same compound?
**A.** 3.14 µM

**Q.** And the GI50 ([3]; read-out: pGI50 (converted))?
**A.** 1.66 µM

**Q.** And the CC50 [3, 43]?
**A.** 6.03 µM

**Q.** What about the TGI ([3]; read-out: pTGI (converted)) of the same compound?
**A.** 3.16 µM

**Q.** And the growth at 0.01 µM [4]?
**A.** 107%

**Q.** What about the growth at 0.1 µM [5] of the same compound?
**A.** 100%

**Q.** And the growth at 100 µM [6]?
**A.** -86%

**Q.** What about the growth at 100 µM [7] of the same compound?
**A.** -15%

**Q.** And the growth at 0.01 µM [8]?
**A.** 91%

**Q.** What about the GI50 ([9]; read-out: GI50) of the same compound?
**A.** 2.84 µM

**Q.** What about the LC50 ([9]; read-out: LC50) of the same compound?
**A.** > 100 µM

**Q.** What about the TGI ([9]; read-out: TGI) of the same compound?
**A.** 11.7 µM

**Q.** And the GI50 ([9]; read-out: pGI50 (converted))?
**A.** 2.82 µM

**Q.** What about the LC50 ([9]; read-out: pLC50 (converted)) of the same compound?
**A.** > 100 µM

**Q.** What about the TGI ([9]; read-out: pTGI (converted)) of the same compound?
**A.** 11.7 µM

**Q.** And the GI50 ([10]; read-out: GI50)?
**A.** 1.68 µM

**Q.** What about the CC50 [10, 42] of the same compound?
**A.** 7.86 µM

**Q.** What about the TGI ([10]; read-out: TGI) of the same compound?
**A.** 3.64 µM

**Q.** And the GI50 ([10]; read-out: pGI50 (converted))?
**A.** 1.7 µM

**Q.** What about the CC50 [10, 43] of the same compound?
**A.** 7.94 µM

**Q.** And the TGI ([10]; read-out: pTGI (converted))?
**A.** 3.63 µM

**Q.** What about the growth at 100 µM [11] of the same compound?
**A.** -36%

**Q.** What about the GI50 ([12]; read-out: GI50) of the same compound?
**A.** 1.77 µM

**Q.** What about the CC50 [12, 42] of the same compound?
**A.** 8.29 µM

**Q.** What about the TGI ([12]; read-out: TGI) of the same compound?
**A.** 3.83 µM

**Q.** And the GI50 ([12]; read-out: pGI50 (converted))?
**A.** 1.78 µM

**Q.** What about the CC50 [12, 43] of the same compound?
**A.** 8.32 µM

**Q.** What about the TGI ([12]; read-out: pTGI (converted)) of the same compound?
**A.** 3.8 µM

**Q.** And the growth at 100 µM [13]?
**A.** -62%

**Q.** What about the growth at 1 µM [14] of the same compound?
**A.** 89%

**Q.** And the growth at 100 µM [15]?
**A.** -51%

**Q.** And the growth at 1 µM [16]?
**A.** 90%

**Q.** What about the growth at 100 µM [17] of the same compound?
**A.** -21%

**Q.** And the growth at 0.1 µM [18]?
**A.** 92%

**Q.** And the growth at 0.01 µM [19]?
**A.** 107%

**Q.** And the growth at 0.01 µM [20]?
**A.** 98%

**Q.** And the growth at 1 µM [21]?
**A.** 106%

**Q.** And the growth at 1 µM [22]?
**A.** 73%

**Q.** What about the growth at 0.01 µM [23] of the same compound?
**A.** 106%

**Q.** What about the growth at 1 µM [24] of the same compound?
**A.** 82%

**Q.** What about the GI50 ([25]; read-out: GI50) of the same compound?
**A.** 1.81 µM

**Q.** And the TGI ([25]; read-out: TGI)?
**A.** 3.92 µM

**Q.** What about the GI50 ([25]; read-out: pGI50 (converted)) of the same compound?
**A.** 1.82 µM

**Q.** What about the TGI ([25]; read-out: pTGI (converted)) of the same compound?
**A.** 3.89 µM

**Q.** What about the growth at 0.01 µM [26] of the same compound?
**A.** 96%

**Q.** And the growth at 1 µM [27]?
**A.** 85%

**Q.** What about the growth at 0.1 µM [28] of the same compound?
**A.** 100%

**Q.** And the growth at 0.01 µM [29]?
**A.** 109%

**Q.** And the growth at 0.01 µM [30]?
**A.** 101%

**Q.** And the growth at 0.1 µM [31]?
**A.** 91%

**Q.** And the growth at 0.01 µM [32]?
**A.** 107%

**Q.** What about the growth at 0.1 µM [33] of the same compound?
**A.** 105%

**Q.** What about the growth at 1 µM [34] of the same compound?
**A.** 83%

**Q.** And the growth at 0.1 µM [35]?
**A.** 88%

**Q.** What about the growth at 100 µM [36] of the same compound?
**A.** -30%

**Q.** And the growth at 0.1 µM [37]?
**A.** 94%

**Q.** What about the GI50 ([38]; read-out: GI50) of the same compound?
**A.** 1.81 µM

**Q.** And the CC50 [38, 42]?
**A.** 6.44 µM

**Q.** And the TGI ([38]; read-out: TGI)?
**A.** 3.41 µM

**Q.** What about the GI50 ([38]; read-out: pGI50 (converted)) of the same compound?
**A.** 1.82 µM

**Q.** And the CC50 [38, 43]?
**A.** 6.46 µM

**Q.** And the TGI ([38]; read-out: pTGI (converted))?
**A.** 3.39 µM

**Q.** What about the GI50 ([39]; read-out: GI50) of the same compound?
**A.** 1.9 µM

**Q.** And the TGI ([39]; read-out: TGI)?
**A.** 4.27 µM

**Q.** And the GI50 ([39]; read-out: pGI50 (converted))?
**A.** 1.91 µM

**Q.** And the TGI ([39]; read-out: pTGI (converted))?
**A.** 4.27 µM

**Q.** And the growth at 0.1 µM [40]?
**A.** 96%

**Q.** And the growth at 0.1 µM [41]?
**A.** 95%
